From patent US20250326749A1, “COMPOUNDS, COMPOSITIONS, AND METHODS OF USING THEREOF” (Sionna Therapeutics Inc., priority 2022, published 2025)

Biological target: T1, ΔF508-CFTR (Homo sapiens, UniProt P13569, DEL508-508)
T1 construct: expressed in transfected cells; host or cells: CFSMEo- (human CF submucosal gland epithelial cells, ΔF508/Q2X), transiently transfected by nucleofection
Assay: ΔF508-CFTR-HRP trafficking assay (cell surface expression of ΔF508-CFTR)
Type: cell-based
Details: CFSMEo- cells transiently transfected with ΔF508-CFTR-HRP; test agent 3 μM, 48 h; HRP chemiluminescence
How it was run: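 Surface-expressed ΔF508-CFTR measured via extracellular HRP tag: cell-impermeable chemiluminescent substrate, 5 min, signal normalized to 0.3% DMSO vehicle.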

T1 sequence (P13569 with tags, fused parts or gaps DEL508-508): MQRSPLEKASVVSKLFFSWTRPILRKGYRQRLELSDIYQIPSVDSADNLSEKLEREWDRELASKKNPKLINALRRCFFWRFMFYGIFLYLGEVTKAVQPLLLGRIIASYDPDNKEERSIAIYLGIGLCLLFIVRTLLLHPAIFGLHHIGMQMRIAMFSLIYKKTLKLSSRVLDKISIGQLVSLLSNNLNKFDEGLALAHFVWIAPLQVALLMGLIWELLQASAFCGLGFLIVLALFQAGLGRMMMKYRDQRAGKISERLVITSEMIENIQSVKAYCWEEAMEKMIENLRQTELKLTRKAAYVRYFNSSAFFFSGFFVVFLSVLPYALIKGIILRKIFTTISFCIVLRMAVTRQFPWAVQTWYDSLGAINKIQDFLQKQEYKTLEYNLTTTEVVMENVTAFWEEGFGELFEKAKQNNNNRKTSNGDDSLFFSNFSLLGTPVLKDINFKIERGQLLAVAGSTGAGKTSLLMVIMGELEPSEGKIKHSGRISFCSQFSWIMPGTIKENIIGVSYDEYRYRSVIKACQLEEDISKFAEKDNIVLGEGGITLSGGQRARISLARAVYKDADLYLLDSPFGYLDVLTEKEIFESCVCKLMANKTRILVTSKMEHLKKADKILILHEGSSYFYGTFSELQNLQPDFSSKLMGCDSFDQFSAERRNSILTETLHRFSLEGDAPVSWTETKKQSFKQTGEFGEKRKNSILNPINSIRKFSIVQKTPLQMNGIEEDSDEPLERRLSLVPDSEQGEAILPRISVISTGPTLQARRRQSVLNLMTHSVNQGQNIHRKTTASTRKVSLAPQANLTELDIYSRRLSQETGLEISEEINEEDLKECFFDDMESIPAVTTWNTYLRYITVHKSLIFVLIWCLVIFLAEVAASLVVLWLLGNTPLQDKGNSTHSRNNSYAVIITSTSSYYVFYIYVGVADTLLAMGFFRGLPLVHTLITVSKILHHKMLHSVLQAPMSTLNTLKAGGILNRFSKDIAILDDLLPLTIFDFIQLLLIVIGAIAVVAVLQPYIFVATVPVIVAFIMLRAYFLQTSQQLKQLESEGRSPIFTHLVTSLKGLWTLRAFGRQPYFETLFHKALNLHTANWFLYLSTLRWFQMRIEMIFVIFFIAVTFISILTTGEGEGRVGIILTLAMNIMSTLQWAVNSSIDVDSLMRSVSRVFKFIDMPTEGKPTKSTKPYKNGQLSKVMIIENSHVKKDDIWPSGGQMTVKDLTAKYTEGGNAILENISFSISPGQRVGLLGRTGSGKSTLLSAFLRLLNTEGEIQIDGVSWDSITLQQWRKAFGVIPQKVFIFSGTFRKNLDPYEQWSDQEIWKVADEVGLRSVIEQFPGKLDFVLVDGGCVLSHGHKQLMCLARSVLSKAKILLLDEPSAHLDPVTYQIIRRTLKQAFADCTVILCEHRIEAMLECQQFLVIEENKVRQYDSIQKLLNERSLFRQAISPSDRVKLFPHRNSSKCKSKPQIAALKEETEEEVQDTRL

Row | Structure (SMILES) | RLUs: ΔF508-CFTR-HRP trafficking data normalized to the vehicle treated control (0.3% DMSO)
1 | C[C@H](Oc1cc(-n2nc(C(F)(F)F)c3c2[C@H](OC24CC(C(=O)O)(C2)C4)CCC3)ccc1F)c1ccc2c(c1)OC(F)(F)O2 (single isomer, unassigned) [76 (P2)] | C (RLU 0.0 μM-3.5 μM)
2 | C[C@H](Oc1cccc(-n2nc(C(F)(F)F)c3c2N(C(=O)c2ccc(C(=O)O)cc2)CCC3)c1)c1ccc2c(c1)OC(F)(F)O2 (single isomer, unassigned) [Example 15] | B (RLU 3.5 μM-5.0 μM)
3 | C[C@@H](Oc1cccc(-n2nc(C(F)(F)F)c3c2C(Oc2ccc(C(=O)O)cc2)CCC3)c1)c1cc2c(cn1)OC(F)(F)O2 (some centres unmarked) [Example 30] | B (RLU 3.5 μM-5.0 μM)
4 | C[C@H](Nc1cc(-n2nc(C(F)(F)F)c3c2[C@H](OC24CC(C(=O)O)(C2)C4)CCC3)ccc1F)c1ccc2c(c1)OC(F)(F)O2 (single isomer, unassigned) [95 (P2)] | C (RLU 0.0 μM-3.5 μM)
5 | C[C@H](Nc1cc(-c2nn(CC(F)(F)F)c3c2[C@@H](Oc2ccc(C(=O)O)cc2)CCC3)ccn1)c1ccc2c(c1)OC(F)(F)O2 (single isomer, unassigned) [Example 129] | B (RLU 3.5 μM-5.0 μM)
6 | C[C@H](Oc1cc(-n2nc(C(F)(F)F)c3c2[C@H](Oc2ccc(C(=O)O)cc2)CCC3)ccn1)c1ccc2c(c1)OC(F)(F)O2 (single isomer, unassigned) [Example 23] | C (RLU 0.0 μM-3.5 μM)
7 | C[C@H](Oc1cc(-n2nc(C(F)(F)F)c3c2C(Oc2ccc(C(=O)O)cc2)CCC3)ccn1)c1ccc2c(c1)OC(F)(F)O2 (stereo partly drawn) [Example 22, 4-[[1-[2-[(1S)-1-(2,2-difluoro-1,3-benzodioxol-5-yl)ethoxy]-4-pyridyl]-3-(trifluoromethyl)-4,5,6,7-tetrahydroindazol-7-yl]oxy]benzoic acid] | B (RLU 3.5 μM-5.0 μM)
8 | C[C@H](Oc1cc(-n2nc(C(F)(F)F)c3c2[C@@H](CN2CCC(C(=O)O)CC2)CCC3)ccn1)c1ccc2c(c1)OC(F)(F)O2 (single isomer, unassigned) [125 (P1)] | A (RLU 5.0 μM-10 μM)
9 | C[C@H](Oc1cccc(-n2nc(C(F)(F)F)c3c2[C@@H](Oc2ccc(C(=O)O)cc2)CCC3)c1)c1ccc2c(c1)OC(F)(F)O2 (single isomer, unassigned) [Example 25] | B (RLU 3.5 μM-5.0 μM)
10 | C[C@@H](Oc1cc(-n2nc(C(F)(F)F)c3c2N(CC24CC(C(=O)O)(C2)C4)CCC3)cnn1)c1ccc2c(c1)OC(F)(F)O2 (single isomer, unassigned) [Example 5] | A (RLU 5.0 μM-10 μM)
11 | C[C@@H](Oc1cc(-n2nc(C(F)(F)F)c3c2C(O[C@H]2CC[C@H](C(=O)O)CC2)CCC3)ccn1)c1ccc2c(c1)OC(F)(F)O2 (single isomer, unassigned) [Example 43] | A (RLU 5.0 μM-10 μM)
12 | CC(Oc1cc(-n2nc(C(F)(F)F)c3c2C(OC24CC(C(=O)O)(C2)C4)CCC3)ccn1)c1cc2c(cn1)OC(F)(F)O2 (stereo in doubt) [Example 46, 3-[[1-[2-[(1R)-1-(2,2-difluoro-[1,3]dioxolo[4,5-c]pyridine-6-yl)ethoxy]-4-pyridyl]-3-(trifluoromethyl)-4,5,6,7-tetrahydroindazol-7-yl]oxy]bicyclo[1.1.1]pentane-1-carboxylic acid] | B (RLU 3.5 μM-5.0 μM)
13 | C[C@H](Nc1cc(-n2nc(C(F)(F)F)c3c2[C@@H](Oc2ccc(C(=O)O)cc2)CCC3)ccn1)c1ccc2c(c1)OC(F)(F)O2 (single isomer, unassigned) [Example 87] | A (RLU 5.0 μM-10 μM)
14 | CC(c1ccc2c(c1)OC(F)(F)O2)S(=O)(=O)c1cccc(-n2nc(C(F)(F)F)c3c2C(Oc2ccc(C(=O)O)cc2)CCC3)c1 (centres unmarked) [Example 118, 4-[[1-[3-[1-(2,2-difluoro-1,3-benzodioxol-5-yl)ethylsulfonyl]phenyl]-3-(trifluoromethyl)-4,5,6,7-tetrahydroindazol-7-yl]oxy]benzoic acid] | C (RLU 0.0 μM-3.5 μM)
15 | C[C@H](Oc1cc(-n2nc(C(F)(F)F)c3c2[C@@H](Nc2ccc(C(=O)O)cc2)CCC3)ccn1)c1ccc2c(c1)OC(F)(F)O2 (single isomer, unassigned) [Example 109] | A (RLU 5.0 μM-10 μM)
16 | C[C@H](Nc1cc(-n2nc(C#N)c3c2[C@H](OC24CC(C(=O)O)(C2)C4)CCC3)ncc1F)c1ccc2c(c1)OC(F)(F)O2 (single isomer, unassigned) [107 (P2)] | C (RLU 0.0 μM-3.5 μM)
17 | C[C@H](Oc1ccnc(-n2nc(C(F)(F)F)c3c2[C@@H](Oc2ccc(C(=O)O)cc2)CCC3)c1)c1ccc2c(c1)OC(F)(F)O2 (single isomer, unassigned) [Example 36b] | A (RLU 5.0 μM-10 μM)
18 | C[C@@H](Oc1cccc(-n2nc(C(F)(F)F)c3c2C(O[C@H]2CC[C@H](C(=O)O)CC2)CCC3)c1)c1ccc2c(c1)OC(F)(F)O2 (some centres unmarked) [Example 38] | A (RLU 5.0 μM-10 μM)
19 | C[C@H](Oc1cc(-n2nc(C(F)(F)F)c3c2[C@@H](Oc2ccc(C(=O)O)cc2)CCC3)ncc1F)c1ccc2c(c1)OC(F)(F)O2 (single isomer, unassigned) [Example 36i] | A (RLU 5.0 μM-10 μM)
20 | C[C@H](Oc1cc(-n2nc(C(F)(F)F)c3c2[C@@H](OC24CC(C(=O)O)(C2)C4)CCC3)cnn1)c1ccc2c(c1)OC(F)(F)O2 (single isomer, unassigned) [Example 62] | C (RLU 0.0 μM-3.5 μM)
21 | C[C@H](Nc1ccc(F)c(-n2nc(C(F)(F)F)c3c2[C@@H](OC24CC(C(=O)O)(C2)C4)CCC3)c1)c1ccc2c(c1)OC(F)(F)O2 (single isomer, unassigned) [99 (P1)] | C (RLU 0.0 μM-3.5 μM)
22 | C[C@H](Nc1nc(-n2nc(C(F)(F)F)c3c2[C@H](OC24CC(C(=O)O)(C2)C4)CCC3)ccc1F)c1ccc2c(c1)OC(F)(F)O2 (single isomer, unassigned) [101 (P2)] | C (RLU 0.0 μM-3.5 μM)
23 | C[C@@H](Oc1cccc(-n2nc(C(F)(F)F)c3c2C(Oc2ccc(C(=O)O)cc2)CCC3)c1)c1ccc2c(c1)OC(F)(F)O2 (single isomer, unassigned) [Example 28] | A (RLU 5.0 μM-10 μM)
